Test results: paper PMC7170330 (Journal of Enzyme Inhibition and Medicinal Chemistry, 2020)
Values joined by “and” are separate entries in the source; they are usually repeats but may differ in a detail not shown here. Identical values can stand only once. Like-named read-outs stand apart in the source and are kept apart here.

How the values were obtained:
[1] = ABTS radical cation scavenging activity; settings: 0.2 mg/mL; mean ± SD, n = 3
Description: (§1) ABTS^•+ scavenging activity assay was performed according to Re method[51]^,[52]. The process of ABTS^•+ (2.0 mM) in water with potassium persulfate (K2S2O8) (2.45 mM) at room temperature in dark for 4 h. gave the ABTS cation radical. Dilution of ABTS^•+ was applied with sodium phosphate buffer (Na3PO4) (0.1 mol/l, pH 7.4) to measure the absorbance at 734 nm. The reactions of ABTS^•+ solution (1.0 ml) with samples solution in ethanol at different concentrations were performed. The inhibition was calculated at 734 nm for each concentration. The DPPH^• and ABTS^•+ free radical scavenging ability was calculated as the following equation: Radical scavenging activity (%) = [(Ac – As)/Ac] × 100. Where, Ac is the absorbance value of DPPH^• and ABTS^•+ before sample addition, while as is the absorbance value after sample addition.

[2] = DPPH free radical scavenging activity; settings: 0.05 mg/mL; mean ± SD, n = 3
Description: The free radical scavenging activity of standard antioxidants and synthesised sulphonamide derivatives was measured by DPPH using the Blois method[49]^,[50] 0.1 mM solution of DPPH^• in ethanol was prepared and 1 ml of this solution was added to 3 ml of the samples solution in ethanol at different concentrations. These solutions were vortexed thoroughly and kept in the darkness for 30 min. The absorbance values of this final mixture were measured at 517 nm. The reduced absorbance of the reaction mixture indicates higher free radical scavenging activity.
as §1

[3] = Fe3+ reducing power (FRAP, modified Oyaizu method); settings: 0.2 mg/mL; 700 nm; mean ± SD, n = 3
Description: The power by metal-reducing of novel synthesised sulphonamide derivatives were determined by modified Oyaizu method[45]^,[46]. Different amounts of derivatives in 1 ml of ethanol were mixed with 0.5 ml of phosphate buffer (0.2 M, pH 6.6) and 0.5 ml of 1% potassium ferricyanide (K3Fe(CN)6). After the mixtures were incubated at 50 °C for 20 min, trichloroacetic acid (0.5 ml, 10%) was added to each mixture and centrifuged (at 1,008 G for 10 min.). The upper layers of the resulting solutions (0.5 ml) were first mixed with distilled water (0.5 ml) and then FeCl3 (0.1 ml, 0.1%) in the given order. absorbances were measured at 700 nm.

[4] = Cupric ion reducing assay (CUPRAC); settings: 0.2 mg/mL; mean ± SD, n = 3
Description: The reduction capacity for cupric ions (Cu^2+) was determined by Cupric Ions Reducing Assay (CUPRAC) assay as previously described[47]^,[48]. A volume of 0.25 ml neocuproine (7.5 mM) in ethanol, 0.25 ml NH4Ac (1 M) and 0.25 ml CuCl2 (0.01 M) was mixed with sample at different amounts and standards.

hCA I = hCA I (Homo sapiens, UniProt P00915); assay: biochemical; settings: esterase activity, p-nitrophenylacetate substrate, Lineweaver-Burk, mean ± SD
AChE = molecular target: T1, AChE (Electrophorus electricus, UniProt O42275); assay: biochemical; settings: electric eel AChE, acetylthiocholine iodide/DTNB, 412 nm, mean ± SD
T1 construct: AChE activity isolated from electric eel (purchased); purchased; host or cells: isolated from electric eel
Description: AChE activity isolated from electric eel (purchased) was performed by a modified version of the Ellman method[63]. The measurement of AChE activity was performed using Acetylthiocholine (ATChI) iodide as the substrates and 5,5-Dithiobis(2-nitrobenzoic) acid (DTNB)[64]. The ATChI iodide as the substrates was monitored spectrophotometrically at 412 nm as in our previous assays[65]^,[66].

hCA II = hCA II (Homo sapiens, UniProt P00918); assay: hCA II esterase activity inhibition (p-nitrophenylacetate); assay type: biochemical; settings: for Ki: esterase activity, p-nitrophenylacetate substrate, Lineweaver-Burk, mean ± SD; for Selectivity index KI (hCA II/hCA I): ratio of KI values

hCA I, sequence (P00915 whole entry): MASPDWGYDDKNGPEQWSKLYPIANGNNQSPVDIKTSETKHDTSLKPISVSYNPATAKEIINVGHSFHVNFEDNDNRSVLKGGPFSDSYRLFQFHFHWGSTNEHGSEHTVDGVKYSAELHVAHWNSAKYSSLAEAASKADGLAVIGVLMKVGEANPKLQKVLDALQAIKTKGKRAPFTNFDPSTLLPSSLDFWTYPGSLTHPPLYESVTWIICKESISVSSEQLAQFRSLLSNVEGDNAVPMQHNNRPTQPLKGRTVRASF
T1 sequence (O42275 24-633): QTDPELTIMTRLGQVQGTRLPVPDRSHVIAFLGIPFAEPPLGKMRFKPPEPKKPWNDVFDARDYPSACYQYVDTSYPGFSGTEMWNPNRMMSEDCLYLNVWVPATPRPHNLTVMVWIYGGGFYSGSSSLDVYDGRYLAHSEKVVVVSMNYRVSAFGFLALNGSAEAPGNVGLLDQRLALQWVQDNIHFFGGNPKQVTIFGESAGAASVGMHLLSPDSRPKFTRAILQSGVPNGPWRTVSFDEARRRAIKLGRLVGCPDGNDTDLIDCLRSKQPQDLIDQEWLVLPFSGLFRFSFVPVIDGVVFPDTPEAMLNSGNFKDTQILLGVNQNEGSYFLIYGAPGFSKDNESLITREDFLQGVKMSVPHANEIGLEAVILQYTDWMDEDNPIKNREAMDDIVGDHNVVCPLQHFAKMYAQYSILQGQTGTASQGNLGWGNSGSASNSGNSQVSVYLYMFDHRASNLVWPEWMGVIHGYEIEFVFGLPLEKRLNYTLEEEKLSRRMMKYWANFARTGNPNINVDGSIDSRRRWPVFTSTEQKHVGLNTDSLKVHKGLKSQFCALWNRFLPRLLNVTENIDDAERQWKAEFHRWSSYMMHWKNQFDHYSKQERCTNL

Row | SMILES | ABTS radical scavenging activity [1] [%] | DPPH radical scavenging activity [2] [%] | Fe3+ reducing ability [3] [absorbance] | Cu2+ reducing ability [4] [absorbance] | Ki (hCA I; read-out: KI hCA I) | Ki (AChE; read-out: KI AChE) [nM] | Ki (hCA II; read-out: KI hCA II) | Selectivity index KI (hCA II/hCA I) (hCA II) | Ki (AChE; KI AChE) [nM] | Ki (hCA II; KI hCA II) [nM] | Ki (hCA I; KI hCA I) [nM]
1 | COc1ccc(O)c(C(C)(C)C)c1 [BHA, butylated hydroxyanisole, reference compound] | 79.5 ± 6.1 | 21.7 ± 1.9 | 1.23 ± 0.20 | 2.28 ± 0.13 |  |  |  |  |  |  | 
2 | Cc1cc(C(C)(C)C)c(O)c(C(C)(C)C)c1 [BHT, butylated hydroxytoluene, reference compound] | 98.9 ± 9.1 | 47.0 ± 5.2 | 0.67 ± 0.01 | 2.00 ± 0.11 |  |  |  |  |  |  | 
3 | NS(=O)(=O)c1cccc(N=Cc2cccc(Br)c2O)c1 [Compound 1, 3-((3-Bromo-2-hydroxybenzylidene)amino)benzenesulfonamide] | 18.4 ± 2.0 | 18.7 ± 1.5 | 0.15 ± 0.03 | 0.22 ± 0.02 | 59.7 ± 0.1 nM | 24.3 ± 1 | 16.4 ± 0.7 nM | 0.27 |  |  | 
4 | NS(=O)(=O)c1cccc(N=Cc2cccc(Cl)c2O)c1 [Compound 2, 3-((3-Chloro-2-hydroxybenzylidene)amino)benzenesulfonamide] | 15.1 ± 1.4 | 8.2 ± 0.4 | 0.27 ± 0.02 | 0.26 ± 0.04 | 66.6 nM and 66.5 nM | 21 | 13.8 ± 0.1 nM | 0.21 |  |  | 
5 | NS(=O)(=O)c1ccc(N=Cc2cccc(Br)c2O)cc1 [Compound 3, 4-((3-Bromo-2-hydroxybenzylidene)amino)benzenesulfonamide] | 7.3 ± 0.6 | 5.9 ± 0.4 | 0.11 ± 0.01 | 0.28 ± 0.04 | 80.5 ± 1.5 nM | 34.9 ± 1.4 | 26.3 ± 0.09 nM | 0.33 |  |  | 
6 | NS(=O)(=O)c1ccc(N=Cc2cccc(Cl)c2O)cc1 [Compound 4, 4-((3-Chloro-2-hydroxybenzylidene)amino)benzenesulfonamide] | 14.7 ± 0.9 | 12.7 ± 0.9 | 0.33 ± 0.02 | 0.24 ± 0.05 | 40.1 ± 0.6 nM | 27.9 ± 1.3 | 79.3 ± 0.2 nM | 1.98 |  |  | 
7 | NS(=O)(=O)c1cccc(NCc2cccc(Br)c2O)c1 [Compound 5, 3-((3-Bromo-2-hydroxybenzyl)amino)benzenesulfonamide] | 76.8 ± 8.1 | 1.9 ± 0.09 | 0.33 ± 0.03 | 0.99 ± 0.07 | 52.1 ± 0.7 nM | 61.2 ± 4 | 19.8 ± 1.2 nM | 0.38 |  |  | 
8 | NS(=O)(=O)c1cccc(NCc2cccc(Cl)c2O)c1 [Compound 6, 3-((3-Chloro-2-hydroxybenzyl)amino)benzenesulfonamide] | 77.7 ± 7.9 | 9.2 ± 0.6 | 0.47 ± 0.06 | 0.93 ± 0.07 | 101 ± 1.9 nM | 25.7 ± 1 | 29.1 ± 0.3 nM | 0.29 |  |  | 
9 | NS(=O)(=O)c1ccc(NCc2cccc(Br)c2O)cc1 [Compound 7, 4-((3-Bromo-2-hydroxybenzyl)amino)benzenesulfonamide] | 74.5 ± 6.4 | 4.2 ± 0.4 | 0.39 ± 0.04 | 1.15 ± 0.08 | 62.3 nM |  |  | 0.16 | 77 ± 9.3 | 10.1 | 
10 | NS(=O)(=O)c1ccc(NCc2cccc(Cl)c2O)cc1 [Compound 8, 4-((3-Chloro-2-hydroxybenzyl)amino)benzenesulfonamide] | 78.4 ± 7.7 | 3.2 ± 0.6 | 0.33 ± 0.07 | 0.80 ± 0.05 |  |  | 62 nM and 61.9 nM | 1.93 | 31.4 ± 1.2 |  | 32.1
11 | Cc1c(C)c2c(c(C)c1O)CCC(C)(C(=O)O)O2 (stereo not shown) [Trolox, reference compound] | 94.4 ± 9.0 | 57.8 ± 6.8 | 1.27 ± 0.12 | 1.81 ± 0.05 |  |  |  |  |  |  | 
